# Measurements taken from PubChem BioAssay AID328 (DTP/NCI, 2004).
# Where “and” joins values, the source holds several entries; their conditions need not be identical. Equal entries are not always repeated. Toxic doses and inconclusive results are not listed.
# System: BDF1 mice, P388 leukemia ip, median survival T/C
# Assay: NCI In Vivo Anticancer Drug Screen. Data for tumor model P388 Leukemia (intraperitoneal) in B6D2F1 (BDF1) mice
# Settings: endpoint: median survival time, higher = longer survival
# Procedure, shortened: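 Survival ratio, drug arm over vehicle arm, in mice with a transplanted tumour.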
# [1] = dose: 177.0 mg/kg/injection, schedule: Q01DX009 (ip), vehicle: saline with Tween-80
# [2] = dose: 266.0 mg/kg/injection, schedule: Q01DX009 (ip), vehicle: saline with Tween-80
# [3] = dose: 400.0 mg/kg/injection, schedule: Q01DX009 (ip), vehicle: saline with Tween-80
# [4] = dose: 50.0 mg/kg/injection, schedule: Q01DX009 (ip), vehicle: saline with Tween-80
# [5] = dose: 100.0 mg/kg/injection, schedule: Q01DX009 (ip), vehicle: saline with Tween-80
# [6] = dose: 200.0 mg/kg/injection, schedule: Q01DX009 (ip), vehicle: saline with Tween-80
# [7] = dose: 100.0 mg/kg/injection, schedule: Q04DX003 (ip), vehicle: saline with Tween-80
# [8] = dose: 200.0 mg/kg/injection, schedule: Q04DX003 (ip), vehicle: saline with Tween-80
# [9] = dose: 400.0 mg/kg/injection, schedule: Q04DX003 (ip), vehicle: saline with Tween-80
# [10] = dose: 100.0 mg/kg/injection, schedule: Q01DX009 (ip), vehicle: saline
# [11] = dose: 200.0 mg/kg/injection, schedule: Q01DX009 (ip), vehicle: saline
# [12] = dose: 100.0 mg/kg/injection, schedule: Q04DX003 (ip), vehicle: saline
# [13] = dose: 200.0 mg/kg/injection, schedule: Q04DX003 (ip), vehicle: saline
# [14] = dose: 400.0 mg/kg/injection, schedule: Q04DX003 (ip), vehicle: saline
smiles,measurement,setting,value
CN(C)/N=N/c1nc(Cc2ccccc2)[nH]c1C(N)=O,T/C,[1],100 % of control
same,T/C,[2],154 % of control
same,T/C,[3],150 % of control
same,T/C,"dose: 600.0 mg/kg/injection, schedule: Q01DX009 (ip), vehicle: saline with Tween-80",195 % of control
CCCC=C=CCN(C)C,T/C,"dose: 12.5 mg/kg/injection, schedule: Q04DX002 (ip), vehicle: saline",96 % of control
same,T/C,"dose: 25.0 mg/kg/injection, schedule: Q04DX002 (ip), vehicle: saline",100 % of control
same,T/C,"dose: 50.0 mg/kg/injection, schedule: Q04DX002 (ip), vehicle: saline",112 % of control
O=C(NCCNc1ccc(F)cc1)C12CC3CC(CC(C3)C1)C2,T/C,[4],91 % of control
same,T/C,[5],104 % of control
same,T/C,[6],97 % of control
O=S(=O)(c1ccccc1)N1CCOC1=S,T/C,[7],114 % of control
same,T/C,[8],95 % of control
same,T/C,[9],95 % of control
C#CCOCC(CCl)OC(=O)Nc1ccccc1 (centres undefined),T/C,"dose: 25.0 mg/kg/injection, schedule: Q01DX009 (ip), vehicle: saline",95 % of control
same,T/C,"dose: 50.0 mg/kg/injection, schedule: Q01DX009 (ip), vehicle: saline",104 % of control
same,T/C,"dose: 50.0 mg/kg/injection, schedule: Q04DX003 (ip), vehicle: saline with Tween-80",87 % of control
same,T/C,[10],104 % of control
same,T/C,[7],95 % of control
same,T/C,[11],109 % of control
same,T/C,[9],100 % of control
CCN(O)C(N)=O,T/C,[5],108 % of control
same,T/C,[7],96 % of control and 104 % of control
same,T/C,[6],100 % of control
same,T/C,[8],88 % of control and 91 % of control
same,T/C,[3],100 % of control
same,T/C,[9],96 % of control and 100 % of control
O=C(COc1cccc(Cl)c1Cl)Nc1cccnc1,T/C,"dose: 37.5 mg/kg/injection, schedule: Q01DX001 (ip), vehicle: saline with Tween-80",100 % of control
same,T/C,"dose: 75.0 mg/kg/injection, schedule: Q01DX001 (ip), vehicle: saline with Tween-80",104 % of control
same,T/C,"dose: 150.0 mg/kg/injection, schedule: Q01DX001 (ip), vehicle: saline with Tween-80",100 % of control
C[C@@]1(O)CCCC[C@H]1O,T/C,[10],100 % of control
same,T/C,[12],110 % of control
same,T/C,[11],100 % of control
same,T/C,[13],100 % of control
same,T/C,[14],100 % of control
CN1CC([N+](=O)[O-])C(=O)C([N+](=O)[O-])C1 (centres undefined),T/C,"dose: 50.0 mg/kg/injection, schedule: Q01DX005 (ip), vehicle: saline with Tween-80",92 % of control
same,T/C,"dose: 100.0 mg/kg/injection, schedule: Q01DX005 (ip), vehicle: saline with Tween-80",87 % of control
same,T/C,"dose: 200.0 mg/kg/injection, schedule: Q01DX005 (ip), vehicle: saline with Tween-80",103 % of control
C(#CCN1CCOCC1)CCCN1CCOCC1,T/C,[12],95 % of control
same,T/C,[13],100 % of control
same,T/C,[14],100 % of control
CSc1ccccc1C(C)(C)O,T/C,"dose: 50.0 mg/kg/injection, schedule: Q01DX009 (ip), vehicle: other",100 % of control
same,T/C,"dose: 100.0 mg/kg/injection, schedule: Q01DX009 (ip), vehicle: other",104 % of control
same,T/C,"dose: 200.0 mg/kg/injection, schedule: Q01DX009 (ip), vehicle: other",113 % of control
CC(C)CNS(=O)(=O)c1ncnc2nc[nH]c12,T/C,[4],109 % of control
same,T/C,[5],109 % of control
Nc1ncnc2c1ncn2C1OC(CO)C(O)C1O (centres undefined),T/C,"dose: 1.56 mg/kg/injection, schedule: Q#A X018 (ip), vehicle: saline with Tween-80",113 % of control
same,T/C,"dose: 3.13 mg/kg/injection, schedule: Q#A X018 (ip), vehicle: saline with Tween-80",100 % of control
same,T/C,"dose: 6.25 mg/kg/injection, schedule: Q#A X018 (ip), vehicle: saline with Tween-80",100 % of control
same,T/C,"dose: 10.0 mg/kg/injection, schedule: Q01DX009 (ip), vehicle: saline with Tween-80",105 % of control
same,T/C,"dose: 12.5 mg/kg/injection, schedule: Q#A X018 (ip), vehicle: saline with Tween-80",109 % of control
same,T/C,"dose: 14.0 mg/kg/injection, schedule: Q01DX009 (ip), vehicle: saline",120 % of control
same,T/C,"dose: 20.0 mg/kg/injection, schedule: Q01DX009 (ip), vehicle: saline with Tween-80",91 % of control and 100 % of control
same,T/C,"dose: 25.0 mg/kg/injection, schedule: Q04DX003 (ip), vehicle: saline",109 % of control
same,T/C,"dose: 40.0 mg/kg/injection, schedule: Q01DX009 (ip), vehicle: saline with Tween-80",114 % of control and 122 % of control
same,T/C,"dose: 50.0 mg/kg/injection, schedule: Q04DX003 (ip), vehicle: saline",113 % of control
same,T/C,"dose: 78.0 mg/kg/injection, schedule: Q01DX009 (ip), vehicle: saline with Tween-80",178 % of control
same,T/C,"dose: 78.6 mg/kg/injection, schedule: Q01DX005 (ip), vehicle: water",108 % of control
same,T/C,"dose: 78.6 mg/kg/injection, schedule: Q01DX009 (ip), vehicle: water",102 % of control
same,T/C,[12],109 % of control
same,T/C,"dose: 110.0 mg/kg/injection, schedule: Q03HX024 (ip), vehicle: saline with Tween-80",184 % of control
same,T/C,"dose: 118.0 mg/kg/injection, schedule: Q01DX005 (ip), vehicle: water",114 % of control
same,T/C,"dose: 118.0 mg/kg/injection, schedule: Q01DX009 (ip), vehicle: saline with Tween-80",165 % of control
same,T/C,"dose: 118.0 mg/kg/injection, schedule: Q01DX009 (ip), vehicle: water",105 % of control
same,T/C,"dose: 160.0 mg/kg/injection, schedule: Q01DX009 (ip), vehicle: saline with Tween-80",151 % of control and 185 % of control
same,T/C,"dose: 160.0 mg/kg/injection, schedule: Q03HX024 (ip), vehicle: saline with Tween-80",206 % of control
same,T/C,"dose: 177.0 mg/kg/injection, schedule: Q01DX005 (ip), vehicle: water",111 % of control
same,T/C,[1],156 % of control and 169 % of control
same,T/C,"dose: 177.0 mg/kg/injection, schedule: Q01DX009 (ip), vehicle: water",112 % of control
same,T/C,"dose: 240.0 mg/kg/injection, schedule: Q03HX024 (ip), vehicle: saline with Tween-80",228 % of control
same,T/C,"dose: 266.0 mg/kg/injection, schedule: Q01DX005 (ip), vehicle: water",117 % of control
same,T/C,[2],156 % of control and 166 % of control
same,T/C,"dose: 266.0 mg/kg/injection, schedule: Q01DX009 (ip), vehicle: water",117 % of control
same,T/C,"dose: 320.0 mg/kg/injection, schedule: Q01DX009 (ip), vehicle: saline with Tween-80",185 % of control
same,T/C,"dose: 400.0 mg/kg/injection, schedule: Q01DX005 (ip), vehicle: water",117 % of control
same,T/C,"dose: 400.0 mg/kg/injection, schedule: Q01DX009 (ip), vehicle: water",114 % of control
same,T/C,"dose: 900.0 mg/kg/injection, schedule: Q01DX009 (ip), vehicle: saline with Tween-80",155 % of control and 156 % of control
COC1CC(N=[N+]=[N-])C(OS(C)(=O)=O)C(C)O1 (centres undefined),T/C,[7],101 % of control
same,T/C,[8],102 % of control
same,T/C,[9],101 % of control
CCOC(=O)c1cc(N)c(N2CCCC2)cc1Cl,T/C,[7],100 % of control
same,T/C,"dose: 133.0 mg/kg/injection, schedule: Q04DX003 (ip), vehicle: saline with Tween-80",89 % of control
same,T/C,[8],105 % of control
same,T/C,"dose: 300.0 mg/kg/injection, schedule: Q04DX003 (ip), vehicle: saline with Tween-80",94 % of control
same,T/C,[9],100 % of control
COc1ccc(-c2c(C)c(C)[nH]c(=O)c2C(=O)O)c(OCc2ccccc2)c1OC,T/C,[5],99 % of control
same,T/C,[7],110 % of control
same,T/C,[6],105 % of control
same,T/C,[8],103 % of control
same,T/C,[3],103 % of control
same,T/C,[9],117 % of control
Nc1nc(N)c(-c2ccccc2)c(C(=O)O)n1,T/C,"dose: 100.0 mg/kg/injection, schedule: Q01DX001 (ip), vehicle: Klucel (hydroxypropylcellulose) (HPC)",109 % of control
same,T/C,"dose: 200.0 mg/kg/injection, schedule: Q01DX001 (ip), vehicle: Klucel (hydroxypropylcellulose) (HPC)",118 % of control
same,T/C,"dose: 400.0 mg/kg/injection, schedule: Q01DX001 (ip), vehicle: Klucel (hydroxypropylcellulose) (HPC)",113 % of control
COc1ccc2c(c1)C(C)(C)Oc1cc3oc(C(=O)O)cc(=O)c3cc1-2,T/C,[7],104 % of control
same,T/C,[8],101 % of control
same,T/C,[9],104 % of control
CN(C)P(=O)(N(C)C)N1CC1,T/C,"dose: 90.0 mg/kg/injection, schedule: Q04DX003 (ip), vehicle: saline",192 % of control
same,T/C,[12],157 % of control
same,T/C,"dose: 135.0 mg/kg/injection, schedule: Q04DX003 (ip), vehicle: saline",176 % of control
same,T/C,[13],233 % of control and 211 % of control
COc1ccc2c(c1)C(=O)CC=C(C(=O)O)N2,T/C,[5],112 % of control
same,T/C,[7],100 % of control
same,T/C,[6],112 % of control
same,T/C,[8],115 % of control
same,T/C,[3],116 % of control
same,T/C,[9],115 % of control
CCOn1nnc2cc(Cl)ccc21,T/C,[7],113 % of control
same,T/C,[8],113 % of control
same,T/C,[9],106 % of control
